Source: publication PMC6415263, “Proteins as Nano-Carriers for Bioactive Compounds. The Case of 7S and 11S Soy Globulins and Folic Acid Complexation” (Polymers, 2018)

Key:
[1] = target: T1, 7S globulin (β-conglycinin); experiment: intrinsic fluorescence quenching, modified double logarithm model; format: binding, Glycine max; conditions: Trizma buffer pH 7.0, I = 0.05 M, 25 °C; excitation 280 nm; protein 5 μM, FA 0-20 μM (methods section prints mM)
T1 construct: gene CG-1; native 7S fraction from defatted soybean flour (Nagano method), lyophilized; mixed trimers of alpha, alpha' and beta; 150-200 kDa; minor gamma-conglycinin
Description: intrinsic fluorescence quenching, modified double logarithm model on 7S globulin (β-conglycinin)

11S globulin (glycinin) = target: T2, 11S globulin (glycinin); experiment: as above; format: binding, Glycine max; conditions: Trizma buffer pH 7.0, I = 0.05 M, 25 °C; excitation 280 nm; protein 5 μM, FA 0-20 μM (methods section prints mM)
T2 construct: gene GY1; native 11S fraction from defatted soybean flour (Nagano method), lyophilized; hexamer of non-identical subunits, each acidic A and basic B polypeptide joined by disulfide; 300-380 kDa
Description: intrinsic fluorescence quenching, modified double logarithm model on 11S globulin (glycinin)

## Nc1nc2ncc(CNc3ccc(C(=O)N[C@@H](CCC(=O)O)C(=O)O)cc3)nc2c(=O)[nH]1 [folic acid]
[1]
  Parameters derived from modified double logarithm model / Ka [M^-1]: 4.00 × 10^4
11S globulin (glycinin)
  Parameters derived from modified double logarithm model / Ka [M^-1]: 4.36 × 10^4
